Source: patent US8524917B2, “6-substituted indole-3-carboxylic acid amide compounds having sphingosine-1-phosphate (S1P) receptor antagonist biological activity” (Allergan, Inc., priority 2007, dated 2013)
Where two headings read alike, the source gives them in different places.

Molecular target: human S1P3 receptor (Homo sapiens (Human), UniProt Q99500)
Experiment: Activation or block of activation of human S1P3 receptor, Ca+2 FLIPR assay
Type: cell-based
Settings: for IC50: read-out: S1P3 IC50
Outline: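 T24 cells stably expressing human S1P3, grown in charcoal-treated FBS, dye-loaded and read on FLIPR for calcium after ligand addition in HBSS/20 mM HEPES (1 s readings for 75 s, then every 10 s for 2.5 min). Agonist or antagonist mode; S1P positive control in 4 mg/ml fatty-acid-free BSA. IC50 by Levenberg–Marquardt regression.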

[1] = T24 cells stably expressing the human S1P3 receptor, FLIPR Ca+2 response, 0.61 nM to 10,000 nM
[2] = T24 cells stably expressing the human S1P3 receptor, value in brackets

Sequence of human S1P3 receptor (Q99500 whole entry): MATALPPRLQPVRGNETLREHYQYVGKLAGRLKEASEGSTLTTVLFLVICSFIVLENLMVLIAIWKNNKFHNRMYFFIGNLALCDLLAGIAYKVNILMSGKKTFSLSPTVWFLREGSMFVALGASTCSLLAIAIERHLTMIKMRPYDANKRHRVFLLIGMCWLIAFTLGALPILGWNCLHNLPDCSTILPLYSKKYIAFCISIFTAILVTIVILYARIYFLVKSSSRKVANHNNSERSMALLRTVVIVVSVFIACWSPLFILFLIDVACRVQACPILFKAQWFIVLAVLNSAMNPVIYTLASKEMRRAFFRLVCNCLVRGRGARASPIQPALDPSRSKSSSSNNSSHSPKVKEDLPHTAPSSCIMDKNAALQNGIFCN

| Compound | IC50 [1] | S1P3 (% inh) [2] | S1P3 (% inh) | IC50 |
| --- | --- | --- | --- | --- |
| CC(C)c1c(C(=O)NCc2ccc(F)c(F)c2)c2ccc(OC3CCOCC3)cc2n1Cc1ccccn1 [Compound 143, N-(3,4-Difluorobenzyl)-2-isopropyl-1-(pyridin-2-ylmethyl)-6-(tetrahydro-2H-pyran-4-yloxy)-1H-indole-3-carboxamide] | 36 nM | 99% | – | – |
| CC(C)c1c(C(=O)NCc2cncc(F)c2)c2ccc(OC3CCCC3)cc2n1Cc1ccccn1 [Compound 148, 6-(Cyclopentyloxy)-N-((5-fluoropyridin-3-yl)methyl)-2-isopropyl-1-(pyridin-2-ylmethyl)-1H-indole-3-carboxamide] | – | – | 13 nM (100) % | 13 nM |
| CC(C)COc1ccc2c(C(=O)NCc3cncc(F)c3)c(C(C)C)n(Cc3ccccn3)c2c1 [Compound 149, N-((5-Fluoropyridin-3-yl)methyl)-6-isobutoxy-2-isopropyl-1-(pyridin-2-ylmethyl)-1H-indole-3-carboxamide] | 29 nM | 100% | – | – |
| CC(C)c1c(C(=O)NCc2ccc(F)c(F)c2)c2ccc(Oc3nccs3)cc2n1Cc1ccccn1 [Compound 150, N-(3,4-Difluorobenzyl)-2-isopropyl-1-(pyridin-2-ylmethyl)-6-(thiazol-2-yloxy)-1H-indole-3-carboxamide] | 5 nM | 100% | – | – |
| CC(C)c1c(C(=O)NCc2ccc(F)c(F)c2)c2ccc(O)cc2n1Cc1cccnc1 [Compound 151, N-(3,4-Difluorobenzyl)-6-hydroxy-2-isopropyl-1-(pyridin-3-ylmethyl)-1H-indole-3-carboxamide] | – | – | 65 nM (98) % | 65 nM |
| CC(C)c1c(C(=O)NCc2ccc(F)c(F)c2)c2ccc(Oc3nccs3)cc2n1Cc1cccnc1 [Compound 152, N-(3,4-Difluorobenzyl)-2-isopropyl-1-(pyridin-3-ylmethyl)-6-(thiazol-2-yloxy)-1H-indole-3-carboxamide] | 17 nM | 97% | – | – |
| CC(C)c1c(C(=O)NCc2ccc(F)c(F)c2)c2ccc(OC3CCCC3)cc2n1Cc1cccnc1 [Compound 153, 6-(Cyclopentyloxy)-N-(3,4-difluorobenzyl)-2-isopropyl-1-(pyridin-3-ylmethyl)-1H-indole-3-carboxamide] | – | – | 5 nM (99) % | 5 nM |
| CC(C)Oc1ccc2c(C(=O)NCc3ccc(F)c(F)c3)c(C(C)C)n(Cc3cccnc3)c2c1 [Compound 154, N-(3,4-Difluorobenzyl)-6-isopropoxy-2-isopropyl-1-(pyridin-3-ylmethyl)-1H-indole-3-carboxamide] | 15 nM | 100% | – | – |
| CC(C)Cn1c(C(C)C)c(C(=O)NCc2ccc(F)c(F)c2)c2ccc(OC3CCCC3)cc21 [Compound 159, 6-(Cyclopentyloxy)-N-(3,4-difluorobenzyl)-1-isobutyl-2-isopropyl-1H-indole-3-carboxamide] | 41 nM | 96% | – | – |
| CC(C)c1c(C(=O)NCc2cncc(F)c2)c2ccc(OC3CCCC3)cc2n1Cc1cccnc1 [Compound 163, 6-(Cyclopentyloxy)-N-((5-fluoropyridin-3-yl)methyl)-2-isopropyl-1-(pyridin-3-ylmethyl)-1H-indole-3-carboxamide] | 55 nM | 100% | – | – |
| CC(C)c1c(C(=O)NCc2ccc(F)c(F)c2)c2ccc(OC3CCC3)cc2n1Cc1cccnc1 [Compound 165, 6-Cyclobutoxy-N-(3,4-difluorobenzyl)-2-isopropyl-1-(pyridin-3-ylmethyl)-1H-indole-3-carboxamide] | 7 nM | 100% | – | – |
| CC(C)Oc1ccc2c(C(=O)NCc3ccc(F)c(F)c3)c(CN3CCCC3)n(Cc3ccccn3)c2c1 [Compound 175, N-(3,4-Difluorobenzyl)-6-isopropoxy-1-(pyridin-2-ylmethyl)-2-(pyrrolidin-1-ylmethyl)-1H-indole-3-carboxamide] | 1100 nM | 100% | – | – |
